Assay results from PubChem BioAssay AID2060888 (Molecular Pharmacology Branch, DTP, NCI, 2025).

Test system: 695427-040-R-J1-PDC complex spheroid viability
Assay: Anticancer human tumor 695427-040-R-J1-PDC patient-derived colon adenocarcinoma cell line growth inhibition [RAS]
Settings: for IC50: curve of first compound; for viability, T/C: stronger effect = lower value
Method in brief: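 Agents were tested in combination matrices in half-log decrements from a top concentration at or near clinical Cmax (10 microM if undetermined). Targets were multi-cell spheroids of tumour lines plus HUVEC and MSC stromal cells.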

[1] = second compound 0.000949 µM, first compound 0.0316 µM
[2] = second compound 0.000949 µM, first compound 0.1 µM
[3] = second compound 0.000949 µM, first compound 0.316 µM
[4] = second compound 0.000949 µM, first compound 1 µM
[5] = second compound 0.000949 µM, first compound 3.16 µM
[6] = second compound 0.000949 µM, first compound 10 µM
[7] = second compound 0.003 µM, first compound 0.0316 µM
[8] = second compound 0.003 µM, first compound 0.1 µM
[9] = second compound 0.003 µM, first compound 0.316 µM
[10] = second compound 0.003 µM, first compound 1 µM
[11] = second compound 0.003 µM, first compound 3.16 µM
[12] = second compound 0.003 µM, first compound 10 µM
[13] = second compound 0.00949 µM, first compound 0.0316 µM
[14] = second compound 0.00949 µM, first compound 0.1 µM
[15] = second compound 0.00949 µM, first compound 0.316 µM
[16] = second compound 0.00949 µM, first compound 1 µM
[17] = second compound 0.00949 µM, first compound 3.16 µM
[18] = second compound 0.00949 µM, first compound 10 µM
[19] = second compound 0.03 µM, first compound 0.0316 µM
[20] = second compound 0.03 µM, first compound 0.1 µM
[21] = second compound 0.03 µM, first compound 0.316 µM
[22] = second compound 0.03 µM, first compound 1 µM
[23] = second compound 0.03 µM, first compound 3.16 µM
[24] = second compound 0.03 µM, first compound 10 µM
[25] = second compound 0.0949 µM, first compound 0.0316 µM
[26] = second compound 0.0949 µM, first compound 0.1 µM
[27] = second compound 0.0949 µM, first compound 0.316 µM
[28] = second compound 0.0949 µM, first compound 1 µM
[29] = second compound 0.0949 µM, first compound 3.16 µM
[30] = second compound 0.0949 µM, first compound 10 µM
[31] = second compound 0.3 µM, first compound 0.0316 µM
[32] = second compound 0.3 µM, first compound 0.1 µM
[33] = second compound 0.3 µM, first compound 0.316 µM
[34] = second compound 0.3 µM, first compound 1 µM
[35] = second compound 0.3 µM, first compound 3.16 µM
[36] = second compound 0.3 µM, first compound 10 µM
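Further: viability read after seven days of drug exposure.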
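Wherever viability, T/C is given: 100% = DMSO vehicle control viability.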

Work on `CC(C)NCC(C(=O)N1CCN(c2ncnc3c2C(C)CC3O)CC1)c1ccc(Cl)cc1` (stereo unspecified) + CCn1c(-c2cc(N3CCN(C)CC3)cnc2C(C)OC)c2c3cc(ccc31)-c1csc(n1)CC(NC(=O)C1CC1C)C(=O)N1CCCC(N1)C(=O)OCC(C)(C)C2 yielded an IC50 (second compound 0.000949 µM) of over 10 µM, an IC50 (second compound 0.003 µM) of over 10 µM and an IC50 (second compound 0.00949 µM) of over 10 µM. It also gave an IC50 (second compound 0.03 µM) of 4.05 µM, an IC50 (second compound 0.0949 µM) of under 0.0316 µM and an IC50 (second compound 0.3 µM) of under 0.0316 µM. The viability, T/C [1] was 84.9%, the viability, T/C [2] was 98.1% and the viability, T/C [3] was 78.2%. The viability, T/C [4] was 89.4%, the viability, T/C [5] was 60.6% and the viability, T/C [6] was 54.8%. It also gave a viability, T/C [7] of 107%, a viability, T/C [8] of 85.5% and a viability, T/C [9] of 96.5%. The viability, T/C [10] was 73%, the viability, T/C [11] was 85.6% and the viability, T/C [12] was 59.2%. For the same compound, the viability, T/C [13] was 74.4%, the viability, T/C [14] was 81.3% and the viability, T/C [15] was 65%. For the same compound, the viability, T/C [16] was 59.1%, the viability, T/C [17] was 85.3% and the viability, T/C [18] was 54.1%. It also gave a viability, T/C [19] of 51.4%, a viability, T/C [20] of 54.6% and a viability, T/C [21] of 51.4%. It also gave a viability, T/C [22] of 52.5%, a viability, T/C [23] of 60.1% and a viability, T/C [24] of 35.1%. The viability, T/C [25] was 36.4%, the viability, T/C [26] was 45.1% and the viability, T/C [27] was 39.2%. For the same compound, the viability, T/C [28] was 36%, the viability, T/C [29] was 41.9% and the viability, T/C [30] was 24.6%. It also gave a viability, T/C [31] of 36.9%, a viability, T/C [32] of 28.7% and a viability, T/C [33] of 35.5%. For the same compound, the viability, T/C [34] was 30.8%, the viability, T/C [35] was 27.9% and the viability, T/C [36] was 15.5%.

In the case of `CC(Nc1ccc2c(c1)OCCn1cc(N3C(=O)OCC3C(F)F)nc1-2)C(N)=O` (stereo unspecified) + CCn1c(-c2cc(N3CCN(C)CC3)cnc2C(C)OC)c2c3cc(ccc31)-c1csc(n1)CC(NC(=O)C1CC1C)C(=O)N1CCCC(N1)C(=O)OCC(C)(C)C2, the IC50 (second compound 0.000949 µM) is reported as 0.855 µM, the IC50 (second compound 0.003 µM) is reported as 0.673 µM and the IC50 (second compound 0.00949 µM) is reported as 0.581 µM. It also gave an IC50 (second compound 0.03 µM) of under 0.0316 µM, an IC50 (second compound 0.0949 µM) of under 0.0316 µM and an IC50 (second compound 0.3 µM) of under 0.0316 µM. The viability, T/C [1] was 61.4%, the viability, T/C [2] was 72.4% and the viability, T/C [3] was 69.7%. The viability, T/C [4] was 47.1%, the viability, T/C [5] was 39.1% and the viability, T/C [6] was 38%. It also gave a viability, T/C [7] of 100%, a viability, T/C [8] of 70.5% and a viability, T/C [9] of 59.5%. The viability, T/C [10] was 41.9%, the viability, T/C [11] was 45.6% and the viability, T/C [12] was 41.9%. For the same compound, the viability, T/C [13] was 86.2%, the viability, T/C [14] was 66.2% and the viability, T/C [15] was 54%. It also gave a viability, T/C [16] of 49.8%, a viability, T/C [17] of 32.2% and a viability, T/C [18] of 25.6%. It also gave a viability, T/C [19] of 45.6%, a viability, T/C [20] of 48.3% and a viability, T/C [21] of 32.2%. It also gave a viability, T/C [22] of 27.1%, a viability, T/C [23] of 26.6% and a viability, T/C [24] of 22.3%. For the same compound, the viability, T/C [25] was 35%, the viability, T/C [26] was 33.3% and the viability, T/C [27] was 31.4%. The viability, T/C [28] was 19.1%, the viability, T/C [29] was 21.3% and the viability, T/C [30] was 14.6%. It also gave a viability, T/C [31] of 36.1%, a viability, T/C [32] of 22.2% and a viability, T/C [33] of 24.3%. It also gave a viability, T/C [34] of 17.1%, a viability, T/C [35] of 14.9% and a viability, T/C [36] of 13.7%.

Work on `O=C(c1ccc(F)c(F)c1Nc1ccc(I)cc1F)N1CC(O)([C@@H]2CCCCN2)C1` + CCn1c(-c2cc(N3CCN(C)CC3)cnc2C(C)OC)c2c3cc(ccc31)-c1csc(n1)CC(NC(=O)C1CC1C)C(=O)N1CCCC(N1)C(=O)OCC(C)(C)C2 yielded an IC50 (second compound 0.000949 µM) of 0.0736 µM, an IC50 (second compound 0.003 µM) of 0.0431 µM and an IC50 (second compound 0.00949 µM) of 0.0265 µM. For the same compound, the IC50 (second compound 0.03 µM) was 0.00498 µM, the IC50 (second compound 0.0949 µM) was under 0.00316 µM and the IC50 (second compound 0.3 µM) was under 0.00316 µM. For the same compound, the viability, T/C (second compound 0.000949 µM, first compound 0.00316 µM) was 79.7%, the viability, T/C (second compound 0.000949 µM, first compound 0.01 µM) was 75.5% and the viability, T/C [1] was 65.4%. The viability, T/C [2] was 45.2%, the viability, T/C [3] was 18.3% and the viability, T/C [4] was 6.04%. The viability, T/C (second compound 0.003 µM, first compound 0.00316 µM) was 91.8%, the viability, T/C (second compound 0.003 µM, first compound 0.01 µM) was 74.2% and the viability, T/C [7] was 53.8%. The viability, T/C [8] was 40%, the viability, T/C [9] was 14.5% and the viability, T/C [10] was 7.31%. The viability, T/C (second compound 0.00949 µM, first compound 0.00316 µM) was 73.1%, the viability, T/C (second compound 0.00949 µM, first compound 0.01 µM) was 63.4% and the viability, T/C [13] was 45.9%. For the same compound, the viability, T/C [14] was 32.7%, the viability, T/C [15] was 11.4% and the viability, T/C [16] was 7.1%. It also gave a viability, T/C (second compound 0.03 µM, first compound 0.00316 µM) of 57.8%, a viability, T/C (second compound 0.03 µM, first compound 0.01 µM) of 37.1% and a viability, T/C [19] of 28.5%. It also gave a viability, T/C [20] of 18.5%, a viability, T/C [21] of 8.58% and a viability, T/C [22] of 5.7%. The viability, T/C (second compound 0.0949 µM, first compound 0.00316 µM) was 28.6%, the viability, T/C (second compound 0.0949 µM, first compound 0.01 µM) was 27.8% and the viability, T/C [25] was 15.5%. The viability, T/C [26] was 7.38%, the viability, T/C [27] was 6.14% and the viability, T/C [28] was 4.07%. For the same compound, the viability, T/C (second compound 0.3 µM, first compound 0.00316 µM) was 23.2%, the viability, T/C (second compound 0.3 µM, first compound 0.01 µM) was 17.1% and the viability, T/C [31] was 11.6%. It also gave a viability, T/C [32] of 6.62%, a viability, T/C [33] of 6.7% and a viability, T/C [34] of 5.28%.
